Test results from patent US10752587B2, “Homobispiperidinyl derivatives as liver X receptor beta agonists, compositions and their use” (Merck Sharp & Dohme Corp., priority 2015, dated 2020).
Read-outs that look alike come from different tables or passages of the source.

What was measured:
[1] = target: T1, glutathione-S-transferase (GST) tagged LXRbeta LBD (ligand binding domain) (Homo sapiens, UniProt P55055); assay: LanthaScreen TR-FRET Liver X Receptor Coactivator Assay, co-activator recruitment to LXRbeta LBD; type: biochemical
T1 construct: purchased Invitrogen pv4658.pps
T1 sequence (P55055 222-460 limits assumed): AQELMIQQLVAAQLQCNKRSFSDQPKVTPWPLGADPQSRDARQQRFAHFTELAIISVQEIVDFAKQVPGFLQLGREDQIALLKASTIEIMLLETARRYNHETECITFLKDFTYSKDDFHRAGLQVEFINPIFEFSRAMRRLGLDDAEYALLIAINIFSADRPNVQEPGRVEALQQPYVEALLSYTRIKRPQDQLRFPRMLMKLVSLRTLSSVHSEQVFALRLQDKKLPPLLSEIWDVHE
Procedure, shortened: (§1)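 GST-tagged LBD added to test compound, then fluorescein-labelled coactivator peptide plus terbium anti-GST antibody; incubated at room temperature, TR-FRET read. Potency given as inflection point and efficacy as Emax relative to reference dual agonist T0901317.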

[2] = target: T2, glutathione-S-transferase (GST) tagged LXRalpha LBD (ligand binding domain) (Homo sapiens, UniProt Q13133); assay: LanthaScreen TR-FRET Liver X Receptor Coactivator Assay, co-activator recruitment to LXRalpha LBD; type: biochemical; conditions: for LXR alpha IP (nM) / EC50: potency (Inflection Point, IP), co-activator recruitment to LXRalpha LBD, in relation to T0901317; for EC50: read-out: LXR alpha IP
T2 construct: purchased Invitrogen pv4655
T2 sequence (Q13133 209-447 limits assumed): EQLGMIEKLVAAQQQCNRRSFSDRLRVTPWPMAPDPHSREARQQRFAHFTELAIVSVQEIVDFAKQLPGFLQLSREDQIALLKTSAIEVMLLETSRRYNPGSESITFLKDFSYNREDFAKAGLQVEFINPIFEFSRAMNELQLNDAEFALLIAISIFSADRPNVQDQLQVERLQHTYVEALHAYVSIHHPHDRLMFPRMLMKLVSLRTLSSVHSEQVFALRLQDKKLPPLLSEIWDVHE
Procedure, shortened: as §1

[3] = efficacy at max dose, in relation to reference dual agonist T0901317, read-out: LXR beta Activity @ max dose (%)
[4] = potency (Inflection Point, IP), co-activator recruitment to LXRbeta LBD, in relation to T0901317, read-out: LXR beta IP
[5] = efficacy at max dose, in relation to reference dual agonist T0901317, read-out: LXR alpha Activity @ max dose (%)
[6] = efficacy at max dose, in relation to reference dual agonist T0901317

Row | Compound | Emax [1, 3] [%] | EC50 [1, 4] [nM] | Emax [2, 5] [%] | LXR alpha IP (nM) [2] | EC50 [2] [nM] | also measured
1 | CC(C)Oc1cccc([C@@](O)(C(=O)N2CCC(CC3CCN(c4ccc(C(=O)N(C)C)c(Cl)n4)CC3)CC2)C(F)(F)F)c1 [Example 7-91, 2-chloro-N,N-dimethyl-6-{4-[(1-{(2R)-3,3,3-trifluoro-2-hydroxy-2-[3-(1-methylethoxy)phenyl]propanoyl}piperidin-4-yl)methyl]piperidin-1-yl}pyridine-3-carboxamide] | 58 | 8 | 14 | NO IP |  | 
2 | CN(C)C(=O)c1ccc(N2CCC(CC3CCN(C(=O)[C@](O)(c4cccc(Br)c4)C(F)(F)F)CC3)CC2)nc1Cl [Example 7-67, 6-[4-({1-[(2R)-2-(3-bromophenyl)-3,3,3-trifluoro-2-hydroxypropanoyl]piperidin-4-yl}methyl)piperidin-1-yl]-2-chloro-N,N-dimethylpyridine-3-carboxamide] | 73 | 4 | 0 |  | 109 | 
3 | CC(C)Oc1cccc([C@@](O)(C(=O)N2CCC(CC3CCN(c4ccc(C(N)=O)c(Cl)c4)CC3)CC2)C(F)(F)F)c1 [Example 12-7, 2-chloro-4-{4-[(1-{(2R)-3,3,3-trifluoro-2-hydroxy-2-[3-(1-methylethoxy)phenyl)-propanoyl}piperidin-4-yl)methyl]piperidin-1-yl}benzamide] |  |  |  |  |  | EC50 ([1]; co-activator recruitment to GST-LXRbeta LBD, TR-FRET, read-out: LXR beta IP (Inflection Point, potency)): 6 nM; Emax ([1]; efficacy in relation to reference dual agonist T0901317, read-out: LXR beta Activity @ max dose): 33%; LXR alpha IP (Inflection Point, potency) ([2]; co-activator recruitment to GST-LXRalpha LBD, TR-FRET): NO IP; Emax ([2]; efficacy in relation to reference dual agonist T0901317, read-out: LXR alpha Activity @ max dose): 12%
4 | COc1cccc([C@@](O)(C(=O)N2CCC(OC3CCN(c4ccc(C(=O)N(C)C)c(Cl)n4)CC3)CC2)C(F)(F)F)c1 [Example 7-153, 2-chloro-N,N-dimethyl-6-[4-({1-[(2R)-3,3,3-trifluoro-2-hydroxy-2-(3-methoxyphenyl)propanoyl]piperidin-4-yl}oxy)piperidin-1-yl]pyridine-3-carboxamide] | 100 | 25 | 29 |  | 890 | 
5 | CCOc1cccc([C@@](O)(C(=O)N2CCC(CC3CN(c4ccc(C(=O)N(C)C)c(C5CC5)n4)C3)CC2)C(F)(F)F)c1 [Example 7-17, 2-cyclopropyl-6-[3-({1-[(2R)-2-(3-ethoxyphenyl)-3,3,3-trifluoro-2-hydroxypropanoyl]piperidin-4-yl}methyl)azetidin-1-yl]-N,N-dimethylpyridine-3-carboxamide] | 36 | 1290 | 0 | NO IP |  | 
6 | CN(C)C(=O)c1ccc(N2CCC(OC3CCN(C(=O)[C@](O)(c4ccccc4)C(F)(F)C(F)(F)F)CC3)CC2)cc1Cl [Example 2-22, 2-chloro-N,N-dimethyl-4-[4-({1-[(2R)-3,3,4,4,4-pentafluoro-2-hydroxy-2-phenylbutanoyl]piperidin-4-yl}oxy)piperidin-1-yl]benzamide] | 131 | 21 | 51 |  | 900 | 
7 | CC(C)C(O)(C(=O)N1CCC(CC2CCN(c3ccc(C(=O)N(C)C)c(Cl)c3)CC2)CC1)C(F)(F)F (stereo not drawn) [Example 2-31, 2-chloro-4-[4-({1-[2-hydroxy-3-methyl-2-(trifluoro-methyl)butanoyl]piperidin-4-yl}methyl)piperidin-1-yl]-N,N-dimethyl-benzamide] | 74 | 784 | 24 |  | 4450 | 
8 | CNC(=O)c1ccc(N2CCC(CC3CCN(C(=O)[C@](O)(c4ccccc4)C(F)(F)C(F)(F)F)CC3)CC2)nc1Cl [Example 7-131, 2-chloro-N-methyl-6-[4-({1-[(2R)-3,3,4,4,4-pentafluoro-2-hydroxy-2-phenylbutanoyl]piperidin-4-yl}methyl)piperidin-1-yl]pyridine-3-carboxamide] | 145 | 27 | 74 |  | 373 | 
9 | CN(C)C(=O)c1ccc(N2CCC(CC3CCN(C(=O)C(F)(F)c4ccc(F)cc4)CC3)CC2)nc1Cl [Example 7-85, 2-chloro-6-[4-({1-[difluoro(4-fluorophenyl)acetyl]piperidin-4-yl}methyl)piperidin-1-yl]-N,N-dimethylpyridine-3-carboxamide] | 29 | 236 | 7 | NO IP |  | 
10 | CCc1cccc([C@@](O)(C(=O)N2CCC(CC3CCN(c4ccc(C(=O)NC)c(Cl)n4)CC3)CC2)C(F)(F)F)c1 [Example 7-148, 2-chloro-6-[4-({1-[(2R)-2-(3-ethylphenyl)-3,3,3-trifluoro-2-hydroxypropanoyl]piperidin-4-yl}methyl)piperidin-1-yl]-N-methylpyridine-3-carboxamide] | 65 | 12 | 24 |  | 120 | 
11 | CN(C)C(=O)c1ccc(N2CCC(OC3CCN(C(=O)C4(C(F)(F)F)CCCCC4)CC3)CC2)cc1Cl [Example 2-19, 2-chloro-N,N-dimethyl-4-{4-[(1-{[1-(trifluoromethyl)cyclohexyl]carbonyl}piperidin-4-yl)oxy]piperidin-1-yl}benzamide] | 75 | 206 | 23 |  | 1810 | 
12 | CNC(=O)c1ccc(N2CCC(SC3CCN(C(=O)[C@](O)(c4cccc(OC)c4)C(F)(F)F)CC3)CC2)nc1Cl [Example 11-1, (R)-2-chloro-N-methyl-6-(4-(1-(3,3,3-trifluoro-2-hydroxy-2-(3-methoxyphenyl)propanoyl)piperidin-4-ylthio)piperidin-1-yl)nicotinamide] |  |  | 17 | NO IP |  | EC50 ([1]; LXR beta IP (nM), potency (Inflection Point, IP), co-activator recruitment to LXRbeta LBD, in relation to T0901317): 17 nM; Emax ([1]; read-out: LXR beta Activity @ max dose (%)): 93%
13 | COc1cc(F)cc([C@@](O)(C(=O)N2CCC(CC3CCN(c4ccc(C(N)=O)c(Cl)c4)CC3)CC2)C(F)(F)F)c1 [Example 12-3, 2-chloro-4-[4-({1-[(2R)-3,3,3-trifluoro-2-(3-fluoro-5-methoxy-phenyl)-2-hydroxy-propanoyl]piperidin-4-yl}methyl)-piperidin-1-yl]-benzamide] | 79 | 5 | 20 |  | 49 | 
14 | CN(Cc1ccon1)C(=O)c1ccc(N2CCC(OC3CCN(C(=O)[C@](O)(c4ccccc4)C(F)(F)F)CC3)CC2)cc1Cl [Example 4-15, 2-chloro-N-(isoxazol-3-yl-methyl)-N-methyl-4-[4-({1-[(2R)-3,3,3-trifluoro-2-hydroxy-2-phenylpropanoyl]piperidin-4-yl}oxy)piperidin-1-yl]benzamide] | 87 | 38 | 40 |  | 1300 | 
15 | CN(C)C(=O)c1ccc(N2CCC(CC3CCN(C(=O)[C@](O)(c4cc(Cl)cc(Cl)c4)C(F)(F)F)CC3)CC2)nc1Cl [Example 7-104, 2-chloro-6-[4-({1-[(2R)-2-(3,5-dichlorophenyl)-3,3,3-trifluoro-2-hydroxypropanoyl]piperidin-4-yl}methyl)piperidin-1-yl]-N,N-dimethylpyridine-3-carboxamide] |  | 3 |  | NO IP |  | LXR beta Activity @ max dose (%) [1, 6]: 51%; LXR alpha Activity @ max dose (%) [2, 6]: 0%
16 | NC(=O)c1ccc(N2CCC(CC3CCN(C(=O)[C@](O)(c4ccccc4)C(F)(F)F)CC3)CC2)cc1Cl [Example 12-2, 2-chloro-4-[4-({1-[(2R)-3,3,3-trifluoro-2-hydroxy-2-phenyl-propanoyl]piperidin-4-yl}methyl)piperidin-1-yl]benzamide] | 74 | 9 | 52 |  | 58 | 
17 | CN(C)C(=O)c1ccc(N2CCC(CC3CCCN(C(=O)[C@](O)(c4ccccc4)C(F)(F)F)CC3)CC2)cc1Cl (stereo partly drawn) [Example 2-160, 2-chloro-N,N-dimethyl-4-[4-({1-[(2R)-3,3,3-trifluoro-2-hydroxy-2-phenyl-propanoyl]azepan-4-yl}methyl)piperidin-1-yl]benzamide] | 33 | 26 | 12 | NO IP |  | 
18 | CN(C)C(=O)c1ccc(N2CCC(CC3(C)CCN(C(=O)[C@](O)(c4cc(F)cc(Cl)c4)C(F)(F)F)CC3)CC2)nc1Cl [Example 7-46, 2-chloro-6-[4-({1-[(2R)-2-(3-chloro-5-fluorophenyl)-3,3,3-trifluoro-2-hydroxypropanoyl]-4-methylpiperidin-4-yl}methyl)piperidin-1-yl]-N,N-dimethylpyridine-3-carboxamide] | 109 | 2 | 46 |  | 40 | 
